From PubChem BioAssay AID179 (DTP/NCI, 2004)
Calls of active or inactive are those of the source.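 Rule for the calls: active = compounds giving half or more protection of infected cells from virus-caused growth loss, again on retest; inactive = the rest.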 Where a SMILES comes first, the peptide text is derived from it. [ ]: non-standard residue; d: D form. The star is where a group is joined. Cbz = O=C(OCc1ccccc1)*; Boc = CC(C)(C)OC(=O)*; Aib = CC(C)(N)C(=O)O; OBn = c1ccc(CO*)cc1; OtBu = CC(C)(C)O*; βAla = NCCC(=O)O

Test system: CEM cells HIV-1 protection, formazan growth assay
Assay: NCI AIDS Antiviral Assay
Settings: for IC50: measured here: growth of uninfected CEM cells
How it was run: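 CEM (human) cells, HIV-1 infected vs uninfected, 5-point dosing, formazan growth read-out. Retest threshold 50% protection.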

Row | SMILES | EC50 | IC50 | outcome
1 | O=S1(=O)CS(=O)(=O)OCCCCO1 | > 1070 µM | 63.1 µM | –
2 | COc1cc(OC)c2c(=O)cc(-c3ccncc3)oc2c1 | – | – | inactive
3 | C=C1C(OC(=O)C(OC(C)=O)C(c2ccccc2)N(C)C)C[C@H](OC(C)=O)[C@]2(C)C1C(OC(C)=O)[C@@H]1CC(OC(C)=O)C(C)=C([C@@H](OC(C)=O)C2OC(C)=O)C1(C)C (some centres not stated) | – | – | inactive
4 | COc1ccc(-c2c(-c3ccccc3)c(C)nc3[nH]c(=S)[nH]c(=S)c23)cc1OC | > 200 µM | 43.7 µM | –
5 | CC[C@@]1(OC(=O)C(N)CCC(=O)O)C(=O)OCc2c1cc1n(c2=O)Cc2cc3ccccc3nc2-1 (some centres not stated) | > 10 µM | 0.0145 µM | –
6 | CN1OC2OC(=O)OC2[C@H]1[C@H]1O[C@H](c2ccccc2)OC1(C)c1cc(OC(=O)c2ccccc2)ccc1OC(=O)c1ccccc1 (some centres not stated) | > 2.34 µM | > 2.34 µM | –
7 | CCc1cccc(C)c1NC(=O)C1=C(C)NC(C)=C(C(=O)Nc2c(C)cccc2CC)C1c1ccc([N+](=O)[O-])cc1 | > 12.9 µM | > 12.9 µM | –
8 | COc1ccc(/C=C(\C#N)c2ccc([N+](=O)[O-])cc2)cc1OC | 102 µM | 759 µM | –
9 | CCCCCCN1CCc2c(C)c(C#N)c3nc4ccccc4n3c21 | > 100 µM | 17.8 µM | –
10 | COc1ccc2[nH]c3c(c2c1)[C@H](c1ccccc1)C[C@@H]1C(=O)N(c2ccccc2)C(=O)[C@H]31 | – | – | inactive
11 | Cc1nc2ccccc2c(=O)n1NC(=O)c1ccc([N+](=O)[O-])cc1 | > 200 µM | > 200 µM | –
12 | O=C1OC(c2cccc(C(F)(F)F)c2)(c2cccc(C(F)(F)F)c2)c2ccc3ccccc3c21 | – | – | inactive
13 | CCc1n[nH]c(=O)[nH]1 | > 200 µM | > 200 µM | –
14 | N/N=C(/C(=O)Nc1cccc(Cl)c1)C(C(=O)c1ccc(O)cc1O)C1OC(=O)c2ccccc21 (configuration not stated) | > 525 µM | 87.1 µM | –
15 | CC(C)(C)OC(=O)C(C#N)C(=O)c1ccc(C(=O)O)[nH]1 (configuration not stated) | > 200 µM | 23.4 µM | –
16 | CC(C)(C)OC(=O)CC(NC(=O)OC(C)(C)C)C(=O)NC(CCCCNC(=O)OCc1ccccc1)C(=O)NC(C)(C)C(=O)NCCC(=O)OCc1ccccc1 (configuration not stated) (Boc-D(OtBu)K(Cbz)[Aib][βAla]-OBn; configuration not given here) | > 100 µM | > 100 µM | –
17 | O=C(O)c1ccccc1C(=O)Nc1ccc(S(=O)(=O)Nc2nccs2)cc1 | > 200 µM | > 200 µM | –
18 | Cn1c(=O)c(-c2ccccc2)c(N=[N+]=[N-])c2ccccc21 | > 200 µM | 135 µM | –
19 | CCOC(=O)c1nc2ccc(C(F)(F)F)cc2nc1Oc1ccc(F)cc1 | > 200 µM | > 200 µM | –
20 | COc1cc2cc(C(=O)N3CC(CCl)c4ccc([N+](C)(C)Cc5ccccc5[N+](=O)[O-])cc43)[nH]c2c(OC)c1OC (configuration not stated) | > 20 µM | 2.24 µM | –
21 | CC(C)=C=CCN(C)Cc1ccccc1 | > 309 µM | > 309 µM | –

Row | SMILES | EC50 | IC50 | outcome
22 | Cc1ccccc1N(CC(=O)O)S(=O)(=O)c1ccccc1 | – | – | inactive
23 | S=C(N/N=C/c1ccccn1)N1CCCCC1 | > 0.2 µM | 0.011 µM | –
24 | N#C/C(=C\c1ccccc1Br)C(=O)c1ccccc1 | > 32.4 µM | > 32.4 µM | –
25 | CC(NNC(=S)N1CCN(c2ccccn2)CC1)c1cccc[n+]1[O-] (configuration not stated) | > 67.6 µM | 0.195 µM | –
26 | O=S(=O)(O)c1cc(N=Nc2ccc(O)c3ncccc23)ccc1CCc1ccc(N=Nc2ccc(O)c3ncccc23)cc1S(=O)(=O)O | 6.31 µM | 42.7 µM | –
27 | Cc1ccc(O)c(C(c2ccc([N+](=O)[O-])cc2)c2cc(C)ccc2O)c1 | – | – | inactive
28 | O=S(O)CCCCSSCCCCS(=O)(O)=S | – | – | inactive
29 | C/C1=C/COC(=O)CC/C(C)=C/CC1 | – | – | inactive
30 | O=C(O)c1onc2ccccc12 | > 1510 µM | 1000 µM | –
31 | Cc1ccc(O)c(C(=O)CCCC(=O)c2cc(C)ccc2O)c1 | > 12 µM | > 12 µM | –
32 | CCCNC(=O)Sc1ccccc1C(=O)N[C@H](C)C(N)=O | > 4.68 µM | – | –
33 | O=C(C/C(=N/O)C(=O)NC1=C(Cl)C(=O)c2ccccc2C1=O)CC(c1ccccc1)c1c(O)c2ccccc2oc1=O (configuration not stated) | > 12.3 µM | 6.61 µM | –
34 | CCOC(=O)C(=O)/C=C(\C)Nc1c(NC2OCC(OC(C)=O)C(OC(C)=O)C2OC(C)=O)nc(SC)[nH]c1=O (configuration not stated) | > 87.1 µM | > 87.1 µM | –
35 | CN1CCOC1(C)CO (configuration not stated) | > 200 µM | > 200 µM | –
36 | O=c1[nH]c2cc([N+](=O)[O-])ccc2nc1/C=C(\O)c1ccc([N+](=O)[O-])cc1 | > 200 µM | 186 µM | –
37 | O=C1OC(c2ccccc2)=N/C1=C\c1c(O)cc(O)cc1O | > 87.1 µM | > 87.1 µM | –
38 | C/C(=C(/C)c1ccc(O)cc1)c1ccc(O)cc1 | > 200 µM | 52.5 µM | –
39 | Nc1cc(=O)[nH]c(SC2=NC(N)CC(O)C2)n1 (configuration not stated) | – | – | inactive
40 | C[S+](C)c1ccccc1NC(C)(C)C | > 776 µM | 490 µM | –
41 | N#C[C@](CO)(NC(=O)OCc1ccccc1)C(F)F | > 200 µM | > 200 µM | –
42 | CC(C)/C(Cl)=N\OC(=O)Nc1ccc(F)cc1F | > 200 µM | 7.24 µM | –

Row | SMILES | EC50 | IC50 | outcome
43 | c1ccc([P+](Cc2csnn2)(c2ccccc2)c2ccccc2)cc1 | > 331 µM | 174 µM | –
44 | O=C(/C=C/c1ccc(/C=C/C(=O)c2ccc(O)cc2)cc1)c1ccc(O)cc1 | > 200 µM | 26.9 µM | –
45 | COC(=O)C(C(=O)C(=O)Nc1ccc(C)cc1C)c1nc2ccc([N+](=O)[O-])cc2[nH]c1=O (configuration not stated) | > 575 µM | 129 µM | –
46 | CCOC(=O)C(=O)N=Nc1c(O)[nH]c2ccccc12 | > 200 µM | > 200 µM | –
47 | COc1cc(C2c3cc4c(cc3OC3(O)COC(=O)C23)OCO4)cc(OC)c1OC (configuration not stated) | > 200 µM | 105 µM | –
48 | NC(CSSCC(N)C(=O)O)C(=O)O (configuration not stated) | > 200 µM | > 200 µM | –
49 | Cc1cc2oc3ccccc3c(=O)c2c(C)c1Cl | > 28.2 µM | > 28.2 µM | –
50 | Cc1cc(O)c2c(c1)OC1(C)CCC3C(C)(C)CCCC34COC2C14 (configuration not stated) | > 55 µM | 1.58 µM | –
51 | CN(NC(=O)/C(=C/c1ccc(O)cc1)NC(=O)c1ccccc1)c1ccnc2cc(Cl)ccc12 | > 200 µM | 10.2 µM | –
52 | OC1CCC(C#CC#CC2CCC(O)CC2)CC1 (configuration not stated) | > 100 µM | > 100 µM | –
53 | C=C(C)C(=O)N1c2ccc(OC)cc2CC1C(=O)OCC (configuration not stated) | > 200 µM | > 200 µM | –
54 | O=C1OCC/C1=C\c1ccc2c(c1)OCO2 | > 45.7 µM | > 45.7 µM | –
55 | CC(C)=CCC/C(C)=C/CC/C(C)=C/Cc1c[nH]c2ccccc12 | > 6.17 µM | > 6.17 µM | –
56 | NCCCN(CCCN(C(=O)Nc1ccccc1)c1ccccc1)C(=O)Nc1ccccc1 | > 200 µM | 55 µM | –
57 | Cc1cc(=O)n2c(nc3cc(C)c(C)cc32)s1 | > 200 µM | > 200 µM | –
58 | O=C(O)C(CO)NC(=O)C1CCCN1C(=O)OCc1ccccc1 (stereo not drawn) (Cbz-Pro-Ser-OH; configuration not given here) | > 77.6 µM | > 77.6 µM | –
59 | CC(=O)Nc1ccc(C2C(C(=O)Nc3ccccc3)=C(C)NC(C)=C2C(=O)Nc2ccccc2)cc1 | > 74.1 µM | > 74.1 µM | –
60 | CC1(C)CC(N(C(=O)/C=C/c2ccc([N+](=O)[O-])o2)C2CCCCC2)CC(C)(C)N1 | > 32.4 µM | 17.4 µM | –
61 | O=S1(=O)COc2ccccc2-c2ncncc21 | 47.9 µM | > 200 µM | –
